Data as given in patent publication US6368788B1 (priority 1987, dated 2002).
Values joined by “and” are separate entries in the source; they are usually repeats but may differ in a detail not shown here. Equal entries are not always repeated. Marks after values point to notes of the source that are not given here.

Assays:
lymphocytes = assay: In vitro incubation of pyoderma patients' lymphocytes with 0.01% L-Glu-L-Trp; format: cell-based, human; conditions: 100 μg/mL in vitro
Staphylococci = assay: Antibiotic sensitivity (doubling-dilution, MIC-2000) of patient isolates before and after Stage 1; format: cell-based
Method: Antibiotics were administered according to established dosages and routes: i.e., penicillin, Ampicillin, oxacillin, tetracycline, erythromycin, garamycin; administered by intramuscular route. Antibiotics were chosen according to the antibiotic sensitivity of the Staphylococci isolated from the respective patients. (Antibiotic sensitivity was determined by testing staphylococcal isolates for their sensitivity in an antibiotic sensitivity doubling-dilution assay with the aid of the semi-automatic MIC-2000 system, Dynatech, USA).
Staphylococci were isolated from patients before and after treatment in Stage 1 with L-Glu-L-Trp in order to determine whether a favorable reversal of T-lymphocyte immunodeficiency might lead to a change in the antibiotic sensitivity. The isolated bacterial colonies following Stage I were typed as follows: namely, in 16 patients S. aureus, in 34, S. epidermidis, in 2 saprophytic Staphylococci. In all cases the same types of Staphylococci were isolated following treatment with L-Glu-L-Trp, but in 4 patients the predominant Staphylococci in the isolates changed from S. aureus to S. epidermidis (n=2), and saprophytic Staphylococci (n=2).
Antibiotic sensitivity of Staphylococci were determined by doubling-dilution methods with the aid of the semiautomatic MIC-2000 system (Dynatech, USA).

Shigella dysenterae = assay: Shigella dysentery; design: species or system human; conditions: in vivo
Text: A total 125 patients infected with Shigella dysentery were examined. Fifty-three patients constituted the control group.

[1] = tested on: E-receptors on thymocytes; assay: Expression of E-receptors on trypsin-treated thymocytes (E-RFC); format: cell-based, guinea pigs; conditions: for E-RFC (%): trypsin-treated thymocytes
Method: Thymus cells were isolated from male guinea pigs (180-200 g) under standard conditions of tissue mincing and differential centrifugation in Medium 199. Isolated thymocytes were treated with trypsin to remove cell surface E-receptors capable of binding rabbit erythrocytes (E). The percentage of cells capable forming E-rosettes (E-RFC) was decreased by about two-fold under these conditions.
L-Glu-L-Trp has been reported to restore T-cell receptors and E-RFC following incubation at 37° C. Studies were conducted in which the activity of L-Glu-L-Trp dipeptide were compared in the latter assay.
Thymocytes were prepared from 48 guinea pigs, treated with trypsin, and tested for E-RFC.

Staphylococcus aureus = assay: Survival after Staphylococcus aureus peritonitis, therapeutic treatment 1 hour after challenge; format: in vivo, mice; conditions: for Percentage Survivors: ip therapeutic 1 hour after challenge
Method: EXAMPLES 32-34, above, test substance (i.e., L-Glu-L-Trp alone or in combination with antibiotic, or antibiotic alone) was injected sc, ip, po one hour after the bacterial challenge.

M. bovis = format: in vivo, mice; conditions: mouse, in vivo
Sarcoma 180 tumor = assay: Sarcoma 180 bilateral tumor size; format: in vivo, Swiss-Webster mice; conditions: for Mean Tumor Weight Left / Mean Tumor Weight Right: mean leg weight treated - normal control
Method: Anti-tumor activity of L-Glu-L-Trp was evaluated using the murine Sarcoma 180 tumor (ATCC CCL-8 CCRF S-180 II) injected at 2×10^6 cells/0.1 mL im into each rear flank of Swiss-Webster mice. Groups consisted of 10 animals. L-Glu-L-Trp was administered in a single 0.1 mL dose of either 10 μg/kg, 75 μg/kg, 250 μg/kg or 1000 μg/kg. Tumor size was evaluated by surgically removing and weighing the affected limbs, and comparing the weight with the weight of normal control (non-tumor) limbs. The first prophylactic drug regimen (PDR-1) consisted of 5 consecutive daily ip injections commencing on day -5 and ending of day -1. The second prophylactic drug regimen (PDR-2) consisted of 5 consecutive daily im injections to the left rear flank (tumor site) beginning on day -5 and ending on day -1. Sarcoma 180 cells were injected im on day 0. Saline 0.1 mL served as the negative control.

L-Glu-L-Trp
E-RFC (lymphocytes): 73.3±2.26% | OKT4+ lymphocytes (lymphocytes): 18.2±1.6% | OKT8+ lymphocytes (lymphocytes): 17.9±1.4% | Patients with decreased MIC of antibiotic for isolated bacteria (Staphylococci; conclusion of Stage 1): 78% | Increase in antibiotic sensitivity of isolates (Staphylococci; in certain cases): > 100 fold | Clinical outcome (Shigella dysenterae): normalization of fever, reduction of toxemia | Percentage of E-RFC ([1]; 0.01-1 mg/mL): increased the percentage of E-RFC in trypsin-treated thymocyte cultures | E-RFC (%) ([1]; Conc. 0.0001 mg/ml): 30.3 ± 3.1 % | E-RFC (%) ([1]; Conc. 0.01 mg/ml): 36.8 ± 2.4 % | E-RFC (%) ([1]; Conc. 1 mg/ml): 42.8 ± 3.5 % | Percentage Survivors (Staphylococcus aureus; 24 hours, Glu-Trp dose 0.01 μg/kg): 16.7% | Percentage Survivors (Staphylococcus aureus; 24 hours, Glu-Trp dose 0.1 μg/kg): 5.6*† % | Percentage Survivors (Staphylococcus aureus; 24 hours, Glu-Trp dose 1 μg/kg): 27.8† % | Percentage Survivors (Staphylococcus aureus; 24 hours, Glu-Trp dose 10 μg/kg (alone or + Ampicillin)): 66.7* % | Percentage Survivors (Staphylococcus aureus; 24 hours, Glu-Trp dose 100 μg/kg (alone or + Ampicillin)): 66.7* % | Percentage Survivors (Staphylococcus aureus; 48 hours, Glu-Trp dose 0.01 μg/kg): 0% | Percentage Survivors (Staphylococcus aureus; 48 hours, Glu-Trp dose 0.1 μg/kg): 0† % | Percentage Survivors (Staphylococcus aureus; 48 hours, Glu-Trp dose 1 μg/kg): 5.6† % | Percentage Survivors (Staphylococcus aureus; 48 hours, Glu-Trp dose 10 μg/kg (alone or + Ampicillin)): 38.9* % | Percentage Survivors (Staphylococcus aureus; 48 hours, Glu-Trp dose 100 μg/kg (alone or + Ampicillin)): 55.6* % | Percentage Survivors (Staphylococcus aureus; 72 hours, Glu-Trp dose 0.01 μg/kg): 0% | Percentage Survivors (Staphylococcus aureus; 72 hours, Glu-Trp dose 0.1 μg/kg): 0% | Percentage Survivors (Staphylococcus aureus; 72 hours, Glu-Trp dose 1 μg/kg): 0† % | Percentage Survivors (Staphylococcus aureus; 72 hours, Glu-Trp dose 10 μg/kg (alone or + Ampicillin)): 16.7* % | Percentage Survivors (Staphylococcus aureus; 72 hours, Glu-Trp dose 100 μg/kg (alone or + Ampicillin)): 33.3* % | Survival (Staphylococcus aureus; ip, 1 hour after challenge): dose-response relationship between the amount of L-Glu-L-Trp administered ip and the survival of animals | Survival (M. bovis): significantly increased survival | Survival Mean (M. bovis; ip): 39 ± 2 and 36 ± 3 and 30 ± 2 and 33 ± 1 and 31 ± 1 and 28 ± 1 | Survival Median (M. bovis; ip): 46 ± 10 and 28 ± 3 and 26 ± 1 and 34 ± 3 and 28 ± 1 and 25 ± 1 | Percent of Control Tumor Weight Left (Sarcoma 180 tumor; PDR-1 ip, 10 μg/kg): 120% | Mean Tumor Weight Left (Sarcoma 180 tumor; PDR-1 ip, 10 μg/kg): 3.0 | Mean Tumor Weight Right (Sarcoma 180 tumor; PDR-1 ip, 10 μg/kg): 2.9 | Percent of Control Tumor Weight Left (Sarcoma 180 tumor; PDR-1 ip, 75 μg/kg): 120% | Mean Tumor Weight Left (Sarcoma 180 tumor; PDR-1 ip, 75 μg/kg): 3.0 | Percent of Control Tumor Weight Right (Sarcoma 180 tumor; PDR-1 ip, 75 μg/kg): 130% | Mean Tumor Weight Right (Sarcoma 180 tumor; PDR-1 ip, 75 μg/kg): 3.0 | Percent of Control Tumor Weight Left (Sarcoma 180 tumor; PDR-1 ip, 250 μg/kg): 92% | Mean Tumor Weight Left (Sarcoma 180 tumor; PDR-1 ip, 250 μg/kg): 2.3 | Percent of Control Tumor Weight Right (Sarcoma 180 tumor; PDR-1 ip, 250 μg/kg): 83% | Mean Tumor Weight Right (Sarcoma 180 tumor; PDR-1 ip, 250 μg/kg): 1.9 | Percent of Control Tumor Weight Left (Sarcoma 180 tumor; PDR-1 ip, 1000 μg/kg): 52% | Mean Tumor Weight Left (Sarcoma 180 tumor; PDR-1 ip, 1000 μg/kg): 1.3 | Percent of Control Tumor Weight Right (Sarcoma 180 tumor; PDR-1 ip, 1000 μg/kg): 43% | Mean Tumor Weight Right (Sarcoma 180 tumor; PDR-1 ip, 1000 μg/kg): 1.0 | Percent of Control Tumor Weight Left (Sarcoma 180 tumor; PDR-2 im, 10 μg/kg): 96% | Mean Tumor Weight Left (Sarcoma 180 tumor; PDR-2 im, 10 μg/kg): 2.4 | Mean Tumor Weight Right (Sarcoma 180 tumor; PDR-2 im, 10 μg/kg): 2.6 | Percent of Control Tumor Weight Left (Sarcoma 180 tumor; PDR-2 im, 75 μg/kg): 96% | Mean Tumor Weight Left (Sarcoma 180 tumor; PDR-2 im, 75 μg/kg): 2.4 | Percent of Control Tumor Weight Right (Sarcoma 180 tumor; PDR-2 im, 75 μg/kg): 132% | Mean Tumor Weight Right (Sarcoma 180 tumor; PDR-2 im, 75 μg/kg): 3.3 | Percent of Control Tumor Weight Left (Sarcoma 180 tumor; PDR-2 im, 250 μg/kg): 72% | Mean Tumor Weight Left (Sarcoma 180 tumor; PDR-2 im, 250 μg/kg): 1.8 | Percent of Control Tumor Weight Right (Sarcoma 180 tumor; PDR-2 im, 250 μg/kg): 48% | Mean Tumor Weight Right (Sarcoma 180 tumor; PDR-2 im, 250 μg/kg): 1.1 | Percent of Control Tumor Weight Left (Sarcoma 180 tumor; PDR-2 im, 1000 μg/kg): 48% | Mean Tumor Weight Left (Sarcoma 180 tumor; PDR-2 im, 1000 μg/kg): 1.2 | Percent of Control Tumor Weight Right (Sarcoma 180 tumor; PDR-2 im, 1000 μg/kg): 57% | Mean Tumor Weight Right (Sarcoma 180 tumor; PDR-2 im, 1000 μg/kg): 1.3 | Tumor growth (Sarcoma 180 tumor; prophylactic ip or im, 250 μg/kg and 1000 μg/kg): inhibited subsequent im tumor growth
